The test has as its target T1, phospholipase A₂ isolated from rat perotoneum (Rattus norvegicus, UniProt P14423).
T1 construct: Enzyme-containing exudate was aspirated through an abdominal incision; Separation of the enzyme from the exudate was accomplished by centrifugation; from tissue; host or cells: peritoneal exudate of casein-injected male Wistar rats
T1 sequence (P14423 22-146): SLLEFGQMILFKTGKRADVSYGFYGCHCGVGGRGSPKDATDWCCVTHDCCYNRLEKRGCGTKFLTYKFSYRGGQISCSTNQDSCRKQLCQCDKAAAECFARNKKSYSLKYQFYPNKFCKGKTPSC
The experiment in a line: phospholipase A₂ inhibition, spectrophotometric assay with Thio Pc Substrate (modified Hendrickson et al. procedure). The class given is biochemical. The settings on record: for IC50: concentration of inhibitor which reduces enzymatic activity by 50̸%, printed in the column % PLA₂ Inhibition; for inhibition at 100 µM: @ 1.0̸ x 10̸⁻⁴M, read-out: % PLA₂ Inhibition.

Where a name gives a salt, the structure may show the parent alone.

Protocol: The substrate employed in the modified assay, was 1,2-bis(decanoylthio)-1,2-­dideoxyglycerol-3-phosphocholine (hereinafter "Thio Pc Substrate"). The enzyme utilized in the procedure was phospholipase A₂ isolated from rat perotoneum as follows:
Male Wistar rats weighing 200-300 g a piece were injected interperitoneally at a dosage of 50 ml/kg of body weight (20 g of casein as the sodium salt diluted to 500 ml in distilled water). After a period of 18-24 hours the animals were sacrificed. Thereafter, each animal was injected interperitoneally with 30 ml of an isotonic salt solution to which sodium heparin was added prior to use at a concentration of 5 units/ml. Enzyme-containing exudate was aspirated through an abdominal incision. Separation of the enzyme from the exudate was accomplished by centrifugation.
Pursuant to the assay procedure, Thio Pc Substrate was apportioned into 1.25 mg aliquots. To each aliquot was added 4 ml of 160 mM tris hydrogen chloride buffer (pH 7.5) containing 2mM of calcium chloride and 2mM of sodium taurocholate. The resulting dispersions were vortexed at room temperature to clear solutions. Inhibition activity of the alkylphospholipids of this invention was determined utilizing spectrophotometric samples prepared by the addition of 5 µl of 4,4′-dithiopyridine and 395 ml of buffered Thio Pc substrate to a perincubated dispersion of 50 µl of alkylphospholipid (appropriately diluted in buffer) in 50 µl of enzyme (appropriately diluted in buffer). Absorbence at (0.5 full scale ) was recorded at a chart speed of 2 cm/min on a Gilford Model 250 Spectrophotometer.
The percentage of phospholipase A₂ inhibition was calculated by means of the following formula: [formula] wherein "inhibitor slope" is the slope of the spectrophotometric curve obtained for a given alkylphospholipid-containing sample and 'control slope" is the slope of the spectrophotometric curve obtained for an otherwise identical sample lacking an inhibitor.

Take `CCN(CC)CCCC(C)Nc1c2ccc(Cl)cc2nc2ccc(OC)cc12` (centres unmarked) [Quinacrine, reference compound]: inhibition was half-maximal at 31 µM (IC50).

On to `CCCCCCCCCCCCCCCC(CCCOP(=O)([O-])OCC[N+](C)(C)C)OCc1ccccc1` (centres unmarked) [4-Hydroxy-N,N,N-trimethyl-9-phenylmethoxy-3,5-dioxa-4-phosphatetracosan-1-aminium, 4-oxide, hydroxide, inner salt monohydrate], for which the inhibition at 100 µM amounted to 41.8%.

Take `CCCCCCCCCCCCCCCC(O)CCCOP(=O)([O-])OCC[N+](C)(C)C` (centres unmarked) [4,9-Dihydroxy-N,N,N-trimethyl-3,5-dioxa-4-phosphatetracosan-1-aminium, hydroxide, inner salt sesquihydrate]: the inhibition at 100 µM worked out at 45.6%.

On to `CCCCCCCCCCCCCCCCCC(CCCOP(=O)([O-])OCC[N+](C)(C)C)OCc1ccccc1` (centres unmarked) [4-Hydroxy-N,N,N-trimethyl-9-phenylmethoxy-3,5-dioxa-4-phosphahexacosan-1-aminium, 4-oxide, hydroxide, inner salt monohydrate], for which the IC50 stood at 84 µM.

As for `CCCCCCCCCCCCCCCCC(O)CCCOP(=O)([O-])OCC[N+](C)(C)C` (centres unmarked) [4,9-Dihydroxy-N,N,N-trimethyl-3,5-dioxa-4-phosphopentacosan-1-aminium, 4-oxide, hydroxide, inner salt monohydrate], the IC50 is 95 µM.

As a reminder, the IC50 is the midpoint of a concentration-inhibition curve. The low end stands for inhibition by little substance, the high end for a need for much substance. A word on the inhibition: it is the percentage by which the read-out fell short of the control.
